We go through two compounds from publication PMC8881610 (Nature Communications, 2022).

Assay [1] deals with GLP-1R (Homo sapiens, UniProt P43220, Q210A). Kind of assay: cAMP accumulation assay, GLP-1R WT, mutant or modified constructs. In kind it is cell-based. Conditions: GLP-1R Q210A, HEK293T. Also on record: Flag; expressed in transfected cells; host or cells: HEK293T. In short, it runs like this:
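HEK293T cells transiently expressing wild-type, mutant or modified human GLP-1R (HA signal peptide constructs) were used. Cells were stimulated with peptide agonists for 40 min at room temperature in HBSS with 0.5 mM IBMX and 0.1% BSA or casein. cAMP was quantified by LANCE Ultra TR-FRET (620/650 nm).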
In general terms: Cyclic AMP is a second messenger, typically raised through Gs and lowered through Gi signalling.

Assay [2] deals with GCGR (Homo sapiens, UniProt P47871, Y138A). Description: Whole-cell binding assay, competition with 125I-GCG. Also on record: V5 (C); 6×His (C); expressed in transfected cells; host or cells: CHO-K1. Conditions: GCGR Y138A, CHO-K1. In a few lines:
(§1)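 CHO-K1 cells transiently transfected with WT or mutant receptor constructs, washed in F-12 with 0.1% BSA or casein/33 mM HEPES and incubated 2 h at 37 °C. Bound radioactivity counted after Triton lysis; data normalized to WT and fitted to a three-parameter logistic equation.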

Assay [3] concerns the target GCGR (Homo sapiens, UniProt P47871, R199A). Described as above. Also on record: V5 (C); 6×His (C); expressed in transfected cells; host or cells: CHO-K1. Conditions: GCGR R199A, CHO-K1. In a few lines:
as §1

Assay [4] deals with GCGR (Homo sapiens, UniProt P47871, K205A). The assay is described as above. More on the design: V5 (C); 6×His (C); expressed in transfected cells; host or cells: CHO-K1. Conditions: GCGR K205A, CHO-K1. In a few lines: as §1
For assay [5], the target named is GCGR (Homo sapiens, UniProt P47871, D195A). The assay is described as above. Also on record: V5 (C); 6×His (C); expressed in transfected cells; host or cells: CHO-K1. Conditions: GCGR D195A; CHO-K1; read-out: binding pIC50 (converted). In a few lines: as §1
Another assay has as its target T1, GIPR (Homo sapiens, UniProt P48546, Y145A).
T1 construct: acylated tirzepatide to the full-length or modified; Flag; expressed in transfected cells
Kind of assay: Whole-cell binding assay, competition with 125I-GIP1-42. Conditions: GIPR Y145A; CHO-K1. On the procedure:
Human embryonic kidney 293 cells containing SV40 large T-antigen (HEK293T) were cultured in DMEM (Gibco) supplemented with 10% (v/v) fetal bovine serum (FBS, Gibco), 1 mM sodium pyruvate (Gibco) and 100 units/mL penicillin and 100 μg/mL streptomycin at 37 °C in 5% CO2. Chinese hamster ovary (CHO-K1) cells were cultured in F-12 (Gibco) containing 10% FBS, 100 units/mL penicillin and 100 μg/mL streptomycin at 37 °C in 5% CO2. For cAMP and receptor expression assays, HEK293T cells were seeded into 6-well cell culture plates at a density of 7 × 10^5 cells per well. After overnight incubation, cells were transfected with GIPR, GLP-1R or GCGR construct using Lipofectamine 2000 or Lipofectamine 3000 transfection reagent (Invitrogen). For whole-cell binding assay, CHO-K1 cells were seeded into 96-well fibronectin-treated cell culture plates at a density of 3 × 10^4 cells per well. […] Following 24 h culturing, the transfected cells were ready for use.
For GIPR, CHO-K1 cells were cultured in F-12 medium with 10% FBS and seeded at a density of 30,000 cells/well in Isoplate-96 plates (PerkinElmer). […] Fifty µL of scintillation cocktail (OptiPhase SuperMix, PerkinElmer) were added and the plates were subsequently counted for radioactivity (counts per minute, CPM) in a MicroBeta^2 microplate counter (PerkinElmer).

Assay [6] concerns the target T2, GLP-1R (Homo sapiens, UniProt P43220, K197A).
T2 construct: Flag; expressed in transfected cells; host or cells: HEK293T
Kind of assay: cAMP accumulation assay, GLP-1R WT, mutant or modified constructs. In kind it is cell-based. Conditions: HEK-293T, GLP-1R K197A; HEK293T. On the procedure: (§2) Human embryonic kidney 293 cells containing SV40 large T-antigen (HEK293T) were cultured in DMEM (Gibco) supplemented with 10% (v/v) fetal bovine serum (FBS, Gibco), 1 mM sodium pyruvate (Gibco) and 100 units/mL penicillin and 100 μg/mL streptomycin at 37 °C in 5% CO2. Chinese hamster ovary (CHO-K1) cells were cultured in F-12 (Gibco) containing 10% FBS, 100 units/mL penicillin and 100 μg/mL streptomycin at 37 °C in 5% CO2. For cAMP and receptor expression assays, HEK293T cells were seeded into 6-well cell culture plates at a density of 7 × 10^5 cells per well. After overnight incubation, cells were transfected with GIPR, GLP-1R or GCGR construct using Lipofectamine 2000 or Lipofectamine 3000 transfection reagent (Invitrogen). For whole-cell binding assay, CHO-K1 cells were seeded into 96-well fibronectin-treated cell culture plates at a density of 3 × 10^4 cells per well. After overnight incubation, cells were transfected with GIPR, GLP-1R or GCGR construct using Lipofectamine 2000 transfection reagent (Invitrogen). Following 24 h culturing, the transfected cells were ready for use. […]
(§3) For GIPR, GLP-1R and GCGR, multi-targeting agonist stimulated cAMP accumulation was measured by a LANCE Ultra cAMP kit (PerkinElmer). […] Plates were incubated at RT for 1 h and the fluorescence intensity measured at 620 nm and […] by an EnVision multilabel plate reader (PerkinElmer).

The target of assay [7] is T3, GLP-1R (Homo sapiens, UniProt P43220, R190A).
T3 construct: Flag; expressed in transfected cells; host or cells: HEK293T
Described as above. In kind it is cell-based. Conditions: HEK-293T, GLP-1R R190A; HEK293T. As to the method: as §2, §3

[8] abbreviates: read-out: binding pIC50 (converted).

GCGR (Homo sapiens, UniProt P47871, R199A), sequence (P47871 26-477 R199A): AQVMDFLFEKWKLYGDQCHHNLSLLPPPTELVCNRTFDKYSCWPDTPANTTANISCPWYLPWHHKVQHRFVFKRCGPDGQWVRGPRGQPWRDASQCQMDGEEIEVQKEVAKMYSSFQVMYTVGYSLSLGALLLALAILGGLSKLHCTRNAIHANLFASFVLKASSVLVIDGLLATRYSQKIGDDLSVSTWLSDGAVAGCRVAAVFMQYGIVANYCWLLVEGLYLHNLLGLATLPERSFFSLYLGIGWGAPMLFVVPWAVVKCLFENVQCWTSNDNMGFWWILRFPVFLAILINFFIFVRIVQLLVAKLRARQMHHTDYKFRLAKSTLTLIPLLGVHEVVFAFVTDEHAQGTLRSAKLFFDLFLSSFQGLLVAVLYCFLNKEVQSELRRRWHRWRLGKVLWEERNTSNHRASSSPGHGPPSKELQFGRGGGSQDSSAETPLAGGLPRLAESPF
GCGR (Homo sapiens, UniProt P47871, Y138A), sequence (P47871 26-477 Y138A): as the sequence (P47871 26-477 R199A) above, with Y113A, A174R counted along it
GLP-1R (Homo sapiens, UniProt P43220, Q210A), sequence (P43220 24-463 Q210A): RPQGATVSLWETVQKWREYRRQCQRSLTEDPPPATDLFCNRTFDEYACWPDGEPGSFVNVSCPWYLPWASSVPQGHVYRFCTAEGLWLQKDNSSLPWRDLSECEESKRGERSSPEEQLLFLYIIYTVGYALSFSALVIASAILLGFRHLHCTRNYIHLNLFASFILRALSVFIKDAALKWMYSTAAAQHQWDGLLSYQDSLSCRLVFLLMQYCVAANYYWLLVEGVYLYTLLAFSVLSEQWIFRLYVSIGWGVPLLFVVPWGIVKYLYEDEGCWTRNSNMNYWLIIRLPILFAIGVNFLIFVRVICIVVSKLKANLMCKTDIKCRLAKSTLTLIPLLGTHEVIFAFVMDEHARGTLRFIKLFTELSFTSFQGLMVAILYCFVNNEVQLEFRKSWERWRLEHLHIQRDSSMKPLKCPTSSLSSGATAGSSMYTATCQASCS
GCGR (Homo sapiens, UniProt P47871, K205A), sequence (P47871 26-477 K205A): as the sequence (P47871 26-477 R199A) above, with A174R, K180A counted along it
T3 sequence (P43220 24-463 R190A): as the sequence (P43220 24-463 Q210A) above, with R167A, A187Q counted along it
GCGR (Homo sapiens, UniProt P47871, D195A), sequence (P47871 26-477 D195A): as the sequence (P47871 26-477 R199A) above, with D170A, A174R counted along it
T1 sequence (P48546 22-466 Y145A): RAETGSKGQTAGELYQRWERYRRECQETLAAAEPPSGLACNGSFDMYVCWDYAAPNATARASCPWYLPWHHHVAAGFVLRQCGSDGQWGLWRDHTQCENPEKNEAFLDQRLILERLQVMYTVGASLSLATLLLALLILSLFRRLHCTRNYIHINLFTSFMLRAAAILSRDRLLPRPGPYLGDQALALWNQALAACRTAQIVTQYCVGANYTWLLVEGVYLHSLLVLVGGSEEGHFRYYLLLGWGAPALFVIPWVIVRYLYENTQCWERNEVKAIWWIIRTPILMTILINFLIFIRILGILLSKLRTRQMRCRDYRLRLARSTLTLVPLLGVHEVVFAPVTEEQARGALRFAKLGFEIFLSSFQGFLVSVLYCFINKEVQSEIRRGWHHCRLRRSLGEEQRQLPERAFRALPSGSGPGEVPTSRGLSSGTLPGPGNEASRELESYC
T2 sequence (P43220 24-463 K197A): as the sequence (P43220 24-463 Q210A) above, with K174A, A187Q counted along it

For orientation: Emax means the maximal effect, on the per cent scale that the assay sets. Take `CCCCCCCCCCCCCCCC(=O)N[C@@H](CCC(=O)NCCCC[C@H](NC(=O)[C@H](CC(=O)O)NC(=O)[C@H](CO)NC(=O)[C@@H](NC(=O)[C@H](Cc1ccccc1)NC(=O)[C@@H](NC(=O)CNC(=O)[C@H](CCC(N)=O)NC(=O)C(C)(C)NC(=O)[C@@H](N)Cc1c[nH]cn1)[C@@H](C)O)[C@@H](C)O)C(=O)N[C@@H](CO)C(=O)N[C@@H](CCCCN)C(=O)N[C@@H](Cc1ccc(O)cc1)C(=O)N[C@@H](CC(C)C)C(=O)N[C@@H](CC(=O)O)C(=O)N[C@@H](CCC(=O)O)C(=O)N[C@@H](CCCNC(=N)N)C(=O)N[C@@H](C)C(=O)N[C@@H](C)C(=O)N[C@@H](CCC(N)=O)C(=O)N[C@@H](CC(=O)O)C(=O)N[C@@H](Cc1ccccc1)C(=O)N[C@H](C(=O)N[C@@H](CCC(N)=O)C(=O)N[C@@H](Cc1c[nH]c2ccccc12)C(=O)N[C@@H](CC(C)C)C(=O)N[C@@H](CC(C)C)C(=O)N[C@@H](CC(=O)O)C(=O)NCC(=O)NCC(=O)N1CCC[C@H]1C(=O)N[C@@H](CO)C(=O)N[C@@H](CO)C(=O)NCC(=O)N[C@@H](C)C(=O)N1CCC[C@H]1C(=O)N1CCC[C@H]1C(=O)N1CCC[C@H]1C(=O)N[C@@H](CO)C(N)=O)C(C)C)C(=O)O` [Peptide 20]: the EC50 at GLP-1R [1] (read-out: cAMP pEC50 (converted)) was 0.00562 nM. At GLP-1R [1] (HEK-293T), this compound showed an Emax of 102 ± 1.27%. Besides, the “binding Span” value is recorded as 2.08 ± 2.48 % WT on GCGR [2], 59.87 ± 5.43 % WT at GCGR [3] and 130.88 ± 9.06 % WT on GCGR [4]. Further, the IC50 at GCGR [2] (setting [8]) is 1.15 nM; at GCGR [3] (setting [8]), 178 nM; on GCGR [4] (setting [8]), 182 nM; on GCGR [5] it was 25.7 nM.
On to `CC[C@H](C)[C@H](NC(=O)[C@H](CC(C)C)NC(=O)[C@H](Cc1c[nH]c2ccccc12)NC(=O)[C@H](CCC(N)=O)NC(=O)[C@@H](NC(=O)[C@H](Cc1ccccc1)NC(=O)[C@H](C)NC(=O)[C@H](CCCCNC(=O)COCCOCCNC(=O)COCCOCCNC(=O)CC[C@H](NC(=O)CCCCCCCCCCCCCCCCCCC(=O)O)C(=O)O)NC(=O)[C@H](CCC(N)=O)NC(=O)[C@H](C)NC(=O)[C@@H](NC(=O)[C@H](CCCCN)NC(=O)[C@H](CC(=O)O)NC(=O)[C@H](CC(C)C)NC(=O)C(C)(C)NC(=O)[C@@H](NC(=O)[C@H](CO)NC(=O)[C@H](Cc1ccc(O)cc1)NC(=O)[C@H](CC(=O)O)NC(=O)[C@H](CO)NC(=O)[C@@H](NC(=O)[C@H](Cc1ccccc1)NC(=O)[C@@H](NC(=O)CNC(=O)[C@H](CCC(=O)O)NC(=O)C(C)(C)NC(=O)[C@@H](N)Cc1ccc(O)cc1)[C@@H](C)O)[C@@H](C)O)[C@@H](C)CC)[C@@H](C)CC)C(C)C)C(=O)N[C@@H](C)C(=O)NCC(=O)NCC(=O)N1CCC[C@H]1C(=O)N[C@@H](CO)C(=O)N[C@@H](CO)C(=O)NCC(=O)N[C@@H](C)C(=O)N1CCC[C@H]1C(=O)N1CCC[C@H]1C(=O)N1CCC[C@H]1C(=O)N[C@@H](CO)C(N)=O` [Tirzepatide], for which, at GIPR, the “binding pIC50” value is reported as “N.B”. For the same compound, the Emax is 111 ± 2.77% on GLP-1R [6] and 102 ± 2.41% on GLP-1R [7].
